Laboratory results reported in patent publication US20220047616A1, “Method and Compositions for Treating HTLV-1 Virus Infection” (priority 2019, published 2022).

Assays:
[1] = system: HTLV-1+ SLB1 lymphoma T-cell-line; assay: Cytotoxicity/apoptosis in HTLV-1+ SLB1 lymphoma T-cells (Annexin V-FITC/PI); conditions: 72 hrs
HTLV-1 [2] = assay: Infectivity of HTLV-1 particles from treated SLB1 cells on primary huPBMCs (p19Gag ELISA); type: cell-based; conditions: lowest concentration 10 μg/ml, relative to vehicle control
HTLV-1 [3] = assay: Virological synapse formation and HTLV-1 transmission in co-culture (fluorescence microscopy, gp21-positive huPBMCs); type: cell-based; conditions: SLB1/pLenti-GFP pre-treated 3 hrs, 10, 50, 100 μg/ml
HIV-1 [4] = conditions: cited from earlier work
HIV-1 [5] = conditions: reported; cited from earlier work
Marburgvirus (MARV/Ci67) = type: cell-based; conditions: compositions added to cells, then virus, 1 hr; FIGS. 3-4
[6] = system: DENV2 (08-10381 Montserrat strain); assay: Protection of DENV2-induced cytopathic effect (CPE) with Neutral Red readout; type: cell-based, Dengue virus; conditions: CPE-based assay, Vero cells, 7 days
Experimental: (§1) A CPE-based antiviral assay was performed by infecting target cells in the presence or absence of test compositions, at a range of concentrations. […] cytopathic effects and cell death. […] For CPE-based assays, cell viability was determined with a neutral red readout. Viable cells incorporate neutral red in their lysosomes. Uptake of neutral red relies on the ability of live cells to maintain a lower pH inside their lysosomes than in the cytoplasm, and this active process requires ATP. Once inside the lysosome, the neutral red dye becomes charged and is retained intracellularly. […] The amount of neutral red in solution was quantified by reading the absorbance (optical density) of each well at 490 nm […]
(§2) Cytotoxic effects were evaluated in uninfected cells by comparing viability in the presence of inhibitors to the viability of mock-treated cells. Cytotoxicity was determined by an XTT viability assay, which was conducted at the same timepoint as the readout for the corresponding infection assay.
(§3) Test compositions were dissolved in 100% methanol. […] When possible, the EC50 and CC50 of the composition was determined for each assay using GraphPad Prism software. […]
Protection of DENV2-induced cytopathic effect (CPE) with Neutral Red readout: For the DENV2 antiviral assay, the 08-10381 Montserrat strain was used. […]

HTLV-1 [7] = assay: HTLV-1 replication and release of p19Gag-containing particles from SLB1 cells (Anti-HTLV-1 p19Gag ELISA); type: cell-based; conditions: SLB1 cells, 10, 50, 100 μg/ml, 72 hrs
HTLV-1 [8] = assay: HTLV-1 transmission in SLB1/huPBMC co-culture (p19Gag ELISA); type: cell-based; conditions: SLB1 pre-treated 15 min or 3 hrs, co-culture 72 hrs
ZIKV (PLCal_ZV strain) = assay: Protection of ZIKV-induced cytopathic effect (CPE) with Neutral Red readout; type: cell-based, Zikavirus; conditions: CPE-based assay, Vero cells, 6 days
Experimental: as §1, §2, §3
Protection of ZIKV-induced cytopathic effect (CPE) with Neutral Red readout: For the ZIKV antiviral assay, the PLCal_ZV strain was used. […]

Ebolavirus (EBOV/Kik) = type: cell-based; conditions: compositions added to cells, then virus, 1 hr; FIGS. 1-2
rhinovirus = assay: Antiviral activity against rhinovirus infection; conditions: concentrations and assays employed herein
Dengue virus = conditions: Cheung et al. 2014; cited from earlier work
HEP C = conditions: reported; cited from earlier work
HCV H strain NS5B = HCV H strain NS5B (Hepatitis C virus genotype 1a, UniProt P27958); conditions: reported; cited from earlier work
Sequence of HCV H strain NS5B (P27958 2421-3011): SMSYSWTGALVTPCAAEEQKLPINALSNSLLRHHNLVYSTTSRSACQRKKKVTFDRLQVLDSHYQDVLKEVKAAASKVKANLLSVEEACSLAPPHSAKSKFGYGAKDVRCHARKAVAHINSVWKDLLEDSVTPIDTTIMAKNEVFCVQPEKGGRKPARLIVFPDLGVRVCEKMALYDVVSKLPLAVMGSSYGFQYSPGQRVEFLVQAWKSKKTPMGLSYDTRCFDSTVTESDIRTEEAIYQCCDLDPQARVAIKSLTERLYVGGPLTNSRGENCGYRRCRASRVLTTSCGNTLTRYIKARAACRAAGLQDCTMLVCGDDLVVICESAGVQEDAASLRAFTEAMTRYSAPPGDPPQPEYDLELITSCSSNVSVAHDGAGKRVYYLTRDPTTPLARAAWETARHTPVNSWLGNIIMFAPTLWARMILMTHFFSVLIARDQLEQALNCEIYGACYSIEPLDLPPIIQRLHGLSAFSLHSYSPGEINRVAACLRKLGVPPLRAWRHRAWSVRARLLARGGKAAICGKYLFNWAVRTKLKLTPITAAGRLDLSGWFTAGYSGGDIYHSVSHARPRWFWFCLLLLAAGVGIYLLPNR

ADV-8 = conditions: reported; cited from earlier work
HEP B = conditions: reported; cited from earlier work
ENTV CVB1 = conditions: reported; cited from earlier work
HSV-1 = conditions: reported; cited from earlier work
HSV-2 = conditions: reported; cited from earlier work
ADV-3 = conditions: reported; cited from earlier work
ADV-11 = conditions: reported; cited from earlier work
ENTV EV71 = conditions: reported; cited from earlier work

In the case of `CO[C@H]1C[C@H](O[C@H]2CC[C@@]3(C)[C@H](CC[C@@H]4[C@@H]3CC[C@]3(C)[C@@H](C5=CC(=O)OC5)[C@@H](OC(C)=O)C[C@]43O)C2)O[C@@H](C)[C@@H]1O` [oleandrin], the “cytotoxicity/apoptosis in SLB1 cells at the lowest concentration” value ([1]; 10 μg/ml) is reported as “did not induce significant cytotoxicity/apoptosis”, the “cytotoxicity in SLB1 cells compared with Vehicle control” value [1] is reported as “not significantly higher than the Vehicle control” and the “infectivity of newly-synthesized p19Gag-containing virus particles on huPBMCs” value (HTLV-1 [2]) is reported as “inhibited the infectivity”. The “formation of virological synapses and transmission of HTLV-1” value (HTLV-1 [3]) was “inhibited the formation of virological synapses and the transmission of HTLV-1 in vitro”, the “HIV-1 viral infectivity in vitro” value (HIV-1 [4]) was “inhibit viral infectivity in vitro” and the “incorporation of gp120 envelope glycoprotein of HIV-1 into mature virus particles” value (HIV-1 [4]) was “prevent the incorporation”. For the same compound, the “anti-viral activity against HIV-1” value (HIV-1 [5]) was “demonstrated anti-HIV activity”, the “efficacy against Marburgvirus (dose response, based on oleandrin content)” value (Marburgvirus (MARV/Ci67)) was “efficacious” and the “efficacy against Dengue virus” value [6] was “demonstrates efficacy”. The “HTLV-1 replication / release of p19Gag-containing virus particles” value (HTLV-1 [7]) was “does not significantly inhibit”, the “transmission of HTLV-1 in co-culture (extracellular p19Gag)” value (HTLV-1 [8]) was “inhibited the transmission of HTLV-1 as compared to the vehicle control” and the “efficacy against Zikavirus” value (ZIKV (PLCal_ZV strain)) was “demonstrates efficacy”. For the same compound, the “efficacy against Ebolavirus (dose response, based on oleandrin content)” value (Ebolavirus (EBOV/Kik)) was “efficacious”, the “cellular viability of Vero E6 cells” value (Vero E6 cells) was “did not reduce cellular viability” and the “activity against rhinovirus (viral replication)” value (rhinovirus) was “inactive”.

For `C[C@H]1O[C@@H](O[C@H]2[C@@H](O)C[C@H](O[C@H]3[C@@H](O)C[C@H](O[C@H]4CC[C@@]5(C)[C@H](CC[C@@H]6[C@@H]5C[C@@H](O)[C@]5(C)[C@@H](C7=CC(=O)OC7)CC[C@]65O)C4)O[C@@H]3C)O[C@@H]2C)C[C@H](O)[C@@H]1O` [digoxin, reference compound], the “cellular viability of Vero E6 cells” value (Vero E6 cells) was “did not reduce cellular viability”.

In the case of `CC(=O)O[C@H]1C[C@H](O[C@H]2[C@@H](O)C[C@H](O[C@H]3[C@@H](O)C[C@H](O[C@H]4CC[C@@]5(C)[C@H](CC[C@@H]6[C@@H]5C[C@@H](O)[C@]5(C)[C@@H](C7=CC(=O)OC7)CC[C@]65O)C4)O[C@@H]3C)O[C@@H]2C)O[C@H](C)[C@H]1O[C@@H]1O[C@H](CO)[C@@H](O)[C@H](O)[C@H]1O` [lanatoside C], the “antiviral activity against Dengue virus” value (Dengue virus) is listed as “demonstrates antiviral activity”.

In the case of `CC1(C)CC[C@]2(C(=O)O)CC[C@]3(C)C(=CC[C@@H]4[C@@]5(C)CC[C@H](O)C(C)(C)[C@@H]5CC[C@]43C)[C@@H]2C1` [Oleanolic acid, oleanolic acid], the “anti-viral activity against HIV-1” value (HIV-1 [5]) is listed as “some anti-viral activity”, the “anti-viral activity against HEP C” value (HEP C) is listed as “some anti-viral activity” and the “anti-viral activity against HCV H strain NS5B” value (HCV H strain NS5B) is listed as “some anti-viral activity”.

In the case of `C[C@H]1[C@H](C)CC[C@]2(C(=O)O)CC[C@]3(C)C(=CC[C@@H]4[C@@]5(C)CC[C@H](O)C(C)(C)[C@@H]5CC[C@]43C)[C@H]12` [Ursolic acid, ursolic acid], the “anti-viral activity against ADV-8” value (ADV-8) is listed as “some anti-viral activity”, the “anti-viral activity against HEP B” value (HEP B) is listed as “some anti-viral activity” and the “anti-viral activity against ENTV CVB1” value (ENTV CVB1) is listed as “some anti-viral activity”. For the same compound, the “anti-viral activity against HIV-1” value (HIV-1 [5]) was “some anti-viral activity”, the “anti-viral activity against HSV-1” value (HSV-1) was “some anti-viral activity” and the “anti-viral activity against HSV-2” value (HSV-2) was “some anti-viral activity”. For the same compound, the “anti-viral activity against ADV-3” value (ADV-3) was “some anti-viral activity”, the “anti-viral activity against ADV-11” value (ADV-11) was “some anti-viral activity” and the “anti-viral activity against HEP C” value (HEP C) was “some anti-viral activity”. For the same compound, the “anti-viral activity against HCV H strain NS5B” value (HCV H strain NS5B) was “some anti-viral activity” and the “anti-viral activity against ENTV EV71” value (ENTV EV71) was “some anti-viral activity”.
